Toxic doses and inconclusive results are not listed. The calls were made as follows: active = survival T/C of 150% or more; inactive = T/C below 125% in these data.
Tested on: CD2F1 mice, L1210 leukemia sc, survival T/C
Assay: NCI In Vivo Anticancer Drug Screen. Data for tumor model L1210 Leukemia (subcutaneous) in CD2F1 (CDF1) mice
Conditions: endpoint: median survival time, higher = longer survival
In short: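 Read-out: survival or tumor size. Value = treated (T) / vehicle control (C). Transplantable tumor in mice.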

Measured: T/C

O=C(CCBr)N1CCN(C(=O)CCBr)CC1
inactive: dose: 28.0 mg/kg/injection, schedule: Q01DX Z (sc), vehicle: methylcellulose (MC) 111 % of control | dose: 47.0 mg/kg/injection, schedule: Q01DX Z (sc), vehicle: methylcellulose (MC) 111 % of control | dose: 78.0 mg/kg/injection, schedule: Q01DX Z (sc), vehicle: methylcellulose (MC) 122 % of control | dose: 360.0 mg/kg/injection, schedule: Q01DX Z (sc), vehicle: methylcellulose (MC) 122 % of control

CSC1SCC2C(=O)N(C)C(C(C)C)C(=O)OCC(NC(=O)c3cnc4ccccc4n3)C(=O)NC(C)C(=O)N(C)C1C(=O)N(C)C(C(C)C)C(=O)OCC(NC(=O)c1cnc3ccccc3n1)C(=O)NC(C)C(=O)N2C (centres undefined)
inactive: dose: 7.5 micrograms/kg/injection, schedule: Q01DX009 (ip), vehicle: Klucel (hydroxypropylcellulose) (HPC) 98 % of control | dose: 15.0 micrograms/kg/injection, schedule: Q01DX009 (ip), vehicle: Klucel (hydroxypropylcellulose) (HPC) 97 % of control | dose: 30.0 micrograms/kg/injection, schedule: Q01DX009 (ip), vehicle: Klucel (hydroxypropylcellulose) (HPC) 96 % of control | dose: 60.0 micrograms/kg/injection, schedule: Q01DX009 (ip), vehicle: Klucel (hydroxypropylcellulose) (HPC) 100 % of control | dose: 120.0 micrograms/kg/injection, schedule: Q01DX009 (ip), vehicle: Klucel (hydroxypropylcellulose) (HPC) 102 % of control

— PubChem BioAssay AID258 (DTP/NCI, 2004)
